Measurements as given in ChEMBL document CHEMBL1765067, “Absolute configuration of (-)-gambogic acid, an antitumor agent” (2011).
pEC50: −log10 of the molar value.

Each molecule was assayed on HT-29 (assay: Anticancer activity aganist human HT-29 cells). Settings: read-out: ED50 (the source's name).
Format: functional
In the case of `CC(C)=CCc1c2c(c(O)c3c1O[C@]14C(=C[C@@H]5C[C@H]1C(C)(C)O[C@@]4(C/C=C(/C)C(=O)O)C5=O)C3=O)C=CC(C)(C)O2`, the pEC50 was 6.44. `CC(C)=CCC[C@]1(C)C=Cc2c(O)c3c(c(CC=C(C)C)c2O1)O[C@]12C(=C[C@@H]4C[C@H]1C(C)(C)O[C@@]2(C/C=C(/C)C(=O)O)C4=O)C3=O` [GAMBOGIC ACID] was tested, and the pEC50 was 6.32. `CC(=O)O[C@H]1C(=O)[C@@]2(C)[C@H]([C@H](OC(=O)c3ccccc3)[C@]3(O)C[C@H](OC(=O)[C@H](O)[C@@H](NC(=O)c4ccccc4)c4ccccc4)C(C)=C1C3(C)C)[C@]1(OC(C)=O)CO[C@@H]1C[C@@H]2O` [PACLITAXEL] was tested, and the pEC50 was 10.00.
